Data from ChEMBL document CHEMBL1201862, “PubChem BioAssay data set” (2004).
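Test compounds were applied to cells in 96-well plates for 48 hours at 5 doses. At the GI50, growth is halved.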 The source made the active and inactive calls. Rule as the data show it: active = GI50 up to about 1.1 µM and inactive = higher.

Legend:
Assay in all cases: DTP human tumour cell line panel, 48 h
786-0 = tested on: 786-0
A549 = tested on: A549
BT-549 = tested on: BT-549
CCRF-CEM = tested on: CCRF-CEM
EKVX = tested on: EKVX
HCT-116 = tested on: HCT-116
K562 = tested on: K562
M14 = tested on: M14
MOLT-4 = tested on: MOLT-4
Malme-3M = tested on: Malme-3M
NCI-H460 = tested on: NCI-H460
RXF 393 = tested on: RXF 393
SF-268 = tested on: SF-268
SF-539 = tested on: SF-539
SK-MEL-5 = tested on: SK-MEL-5
T47D = tested on: T47D
TK-10 = tested on: TK-10
UACC-62 = tested on: UACC-62
OVCAR-4 = tested on: OVCAR-4
NCI-H522 = tested on: NCI-H522

Compound | GI50 (786-0) | GI50 (A549) | GI50 (BT-549) | GI50 (CCRF-CEM) | GI50 (EKVX) | GI50 (HCT-116) | GI50 (K562) | GI50 (M14) | GI50 (MOLT-4) | GI50 (Malme-3M) | GI50 (NCI-H460) | GI50 (RXF 393) | GI50 (SF-268) | GI50 (SF-539) | GI50 (SK-MEL-5) | GI50 (T47D) | GI50 (TK-10) | GI50 (UACC-62) | GI50 (OVCAR-4) | GI50 (NCI-H522)
CC1(C)C2CC(=O)C1(C)C(O)C2Br (configuration not stated) | > 100 µM (inactive) | > 100 µM (inactive) | > 100 µM (inactive) | > 100 µM (inactive) | > 100 µM (inactive) | > 100 µM (inactive) | > 100 µM (inactive) | > 100 µM (inactive) | > 100 µM (inactive) | > 100 µM (inactive) | > 100 µM (inactive) | > 100 µM (inactive) | > 100 µM (inactive) | > 100 µM (inactive) | > 100 µM (inactive) | > 100 µM (inactive) | > 100 µM (inactive) | > 100 µM (inactive) |  | 
Cc1cc(OP2(=O)NCc3ncccc3O2)ccc1Cl (configuration not stated) | > 100 µM (inactive) | > 100 µM (inactive) | > 100 µM (inactive) | > 100 µM (inactive) | > 100 µM (inactive) | > 100 µM (inactive) | 84.5 µM (inactive) | > 100 µM (inactive) | > 100 µM (inactive) |  | > 100 µM (inactive) | > 100 µM (inactive) |  | > 100 µM (inactive) | > 100 µM (inactive) | > 100 µM (inactive) |  | > 100 µM (inactive) | > 100 µM (inactive) | 
COc1cc(/C=C2\N=C(c3ccccc3)N(c3nc4cc(C)c(C)cc4s3)C2=O)cc(OC)c1OC | 27.6 µM (inactive) | 30.1 µM (inactive) | 26.8 µM (inactive) | 7.41 µM (inactive) | 17.5 µM (inactive) | 20.2 µM (inactive) | 35.4 µM (inactive) | 33.3 µM (inactive) | 3.31 µM (inactive) |  | 29.2 µM (inactive) | 19.3 µM (inactive) | 23 µM (inactive) | 21.7 µM (inactive) | 21.2 µM (inactive) | 40.9 µM (inactive) | 60 µM (inactive) | 33.3 µM (inactive) | 21.3 µM (inactive) | 
CCN(CC)c1ccc2cc(C(=O)Nc3ccc(C)cc3)c(=N)oc2c1 | > 100 µM (inactive) | > 100 µM (inactive) | > 100 µM (inactive) | > 100 µM (inactive) | > 100 µM (inactive) | > 100 µM (inactive) | > 100 µM (inactive) | > 100 µM (inactive) | > 100 µM (inactive) | > 100 µM (inactive) | > 100 µM (inactive) | > 100 µM (inactive) | > 100 µM (inactive) |  | > 100 µM (inactive) | > 100 µM (inactive) |  | > 100 µM (inactive) | > 100 µM (inactive) | 
O=C1/C(=C/c2ccccc2[N+](=O)[O-])N=C(c2ccccc2)N1c1nc2ccccc2s1 | 21.7 µM (inactive) | 34.2 µM (inactive) | 20 µM (inactive) | < 0.01 µM (active) | 29 µM (inactive) | 17.9 µM (inactive) | 15 µM (inactive) | 42.7 µM (inactive) | 5.92 µM (inactive) |  | 27 µM (inactive) | 16.9 µM (inactive) | 20.5 µM (inactive) | 30.1 µM (inactive) | 25.2 µM (inactive) | 21.7 µM (inactive) | 49.2 µM (inactive) |  | 19.4 µM (inactive) | 18.6 µM (inactive)
COC[C@@H](C[C@H]1O[C@@](O)([C@H](O)[C@@H]2C[C@H](OC)[C@@H](O)CC/C=C(C)/C=C/[C@@H](O[C@@H]3O[C@@H](C)[C@H](OC)[C@@H](O)[C@@H]3O)[C@H](C)/C=C(C)/C=C(C)/C=C(\C)C(=O)O2)[C@H](C)[C@@H](O)[C@H]1C)O[C@H]1C[C@](C)(O)[C@@H](O[C@H]2C[C@@H](OC)[C@H](O)[C@@H](C)O2)C(C)O1 (some centres not stated) | > 100 µM (inactive) | 1.32 µM (inactive) | > 92.3 µM (inactive) |  | 0.119 µM (active) | > 100 µM (inactive) | 0.149 µM (active) | > 100 µM (inactive) | 2.44 µM (inactive) |  | > 61 µM (inactive) | > 100 µM (inactive) | > 40.8 µM (inactive) | > 100 µM (inactive) | 0.182 µM (active) | 0.188 µM (active) | > 100 µM (inactive) | > 100 µM (inactive) | 41.3 µM (inactive) | 0.0685 µM (active)
CCCCCCCCCCCC[C@@H](O)[C@H]1CC[C@H]([C@H]2CC[C@H]([C@H](O)CC[C@H](O)CCCCCCCC3=C[C@H](C)OC3=O)O2)O1 | 2.4 µM (inactive) | 1.35 µM (inactive) | 0.00352 µM (active) | 1.09 µM (active) | 1.1 µM (active) | 1.23 µM (inactive) | 1.05 µM (active) | 1.64 µM (inactive) | 1.84 µM (inactive) |  | 1.08 µM (active) | 2.12 µM (inactive) | 1.55 µM (inactive) | 1.68 µM (inactive) | 1.38 µM (inactive) | 3.4 µM (inactive) | 1.21 µM (inactive) | 1.02 µM (active) |  | 
